Test results from patent publication US20050209278A1, “Piperidinyl- and piperazinyl-sulfonylmethyl hydroxamic acids and their use as protease inhibitors” (priority 2002, published 2005).
pKi: −log10 of the molar value.

What was measured:
[1] = target: T1, MMP-2 (Homo sapiens, UniProt P08253); assay: In vitro MMP inhibition, Ki determination (fluorogenic substrate II); assay type: biochemical; conditions: value not in parenthesis; read-out: MMP-2 Ki
T1 construct: made in house; host or cells: MMP-2-transfected p2AHT2 cells
T1 sequence (P08253 110-660): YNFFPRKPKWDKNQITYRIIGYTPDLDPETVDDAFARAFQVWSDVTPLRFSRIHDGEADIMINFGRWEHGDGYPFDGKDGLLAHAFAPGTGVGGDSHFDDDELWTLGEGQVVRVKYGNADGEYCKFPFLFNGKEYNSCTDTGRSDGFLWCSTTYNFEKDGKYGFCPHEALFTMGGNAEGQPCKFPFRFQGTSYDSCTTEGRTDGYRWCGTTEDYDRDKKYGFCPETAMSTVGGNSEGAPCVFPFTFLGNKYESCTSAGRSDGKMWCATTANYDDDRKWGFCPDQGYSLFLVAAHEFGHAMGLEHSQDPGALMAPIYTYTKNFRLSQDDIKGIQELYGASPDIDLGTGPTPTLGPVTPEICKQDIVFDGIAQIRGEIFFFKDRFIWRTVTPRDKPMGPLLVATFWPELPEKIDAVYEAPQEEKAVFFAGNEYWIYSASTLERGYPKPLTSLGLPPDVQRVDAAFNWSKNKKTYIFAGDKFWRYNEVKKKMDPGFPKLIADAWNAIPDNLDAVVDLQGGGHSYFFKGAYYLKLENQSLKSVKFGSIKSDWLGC

[2] = target: T2, MMP-13 (Homo sapiens, UniProt P45452); assay: as above; assay type: biochemical; conditions: value not in parenthesis; read-out: MMP-13 Ki
T2 construct: made in house; host or cells: baculovirus / insect cells
In short: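 Ki determined with human recombinant MMP-13, baculovirus-expressed as proenzyme and activated with APMA. Fluorogenic MCA/Dpa substrate II at 4 μM (at or below Km) with low enzyme in Tris buffer pH 7.5 with CaCl2. Incubation was 1 h at room temperature, with fluorescence read at 330/420 nm.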

Compound | pKi [1] | pKi [2]
O=C(NO)C1(S(=O)(=O)N2CCN(c3ccc4c(c3)OC(F)(F)C(F)(F)O4)CC2)CCOCC1 [Example 67] | 7.30 | 6.81
CCCCOc1c(F)cc(N2CCN(S(=O)(=O)C3(C(=O)NO)CCN(CCOC)CC3)CC2)cc1F [Example 165] | 9.31 | 8.99
CCCCOc1ccc(N2CCN(S(=O)(=O)C3(C(=O)NO)CCN(C(=O)c4cccs4)CC3)CC2)cc1 [Example 160] | 9.22 | 9.38
CCCCOc1ccc(N2CCN(S(=O)(=O)C3(C(=O)NO)CCN(c4ccc(OC(F)(F)C(F)F)cc4)CC3)CC2)cc1 [Example 65] | 7.63 | 7.49
O=C(NO)C1(S(=O)(=O)N2CCN(c3ccc(OCCN4CCCC4)cc3)CC2)CCOCC1 [Example 162] | 7.74 | 8.11
CCCC(C)Cc1ccc(N2CCN(S(=O)(=O)C3(C(=O)NO)CCN(CCOC)CC3)CC2)cc1 (stereo not drawn) [Example 189] | 8.01 | 8.69
CCCCCc1ccc(N2CCN(S(=O)(=O)C3(C(=O)NO)CCOCC3)CC2)nc1 [Example 167] | 9.96 | 10.10
CCCCC(=O)c1ccc(N2CCN(S(=O)(=O)C3(C(=O)NO)CCN(CCOC)CC3)CC2)cc1 [Example 177] | 8.63 | 9.07
COCCN1CCC(C(=O)NO)(S(=O)(=O)N2CCN(c3ccccn3)CC2)CC1 [Example 176] | 8.80 | 8.76
COCCN1CCC(C(=O)NO)(S(=O)(=O)N2CCN(c3ccc(C)cc3)CC2)CC1 [Example 194] | 8.76 | 8.39
CCCCOc1ccc(N2CCN(S(=O)(=O)C3(C(=O)NO)CCN(c4ncccn4)CC3)CC2)cc1 [Example 159] | 9.15 | 9.23
CCC(C)Cc1ccc(N2CCN(S(=O)(=O)C3(C(=O)NO)CCN(CCOC)CC3)CC2)cc1 (stereo not drawn) [Example 190] | 8.83 | 9.07
COCCN1CCC(C(=O)NO)(S(=O)(=O)N2CCN(c3ccc(CC(C)C)cc3)CC2)CC1 [Example 192] | 8.72 | 8.71
CCCNC(=O)c1ccc(N2CCN(S(=O)(=O)C3(C(=O)NO)CCN(CCOC)CC3)CC2)cc1 [Example 175] | 7.33 | 8.08
CCCCOc1ccc(N2CCN(S(=O)(=O)C3(C(=O)NO)CCN(C(=O)c4ccco4)CC3)CC2)cc1 [Example 156] | 9.12 | 9.51
CCCCCc1ccc(N2CCN(S(=O)(=O)C3(C(=O)NO)CCOCC3)CC2)nn1 [Example 197] | 8.24 | 8.22
O=C(NO)C1(S(=O)(=O)N2CCN(c3ccc(SC(F)(F)F)cc3)CC2)CCOCC1 [Example 170] | 9.62 | 9.02
CCCCOc1ccc(N2CCN(S(=O)(=O)C3(C(=O)NO)CC3)CC2)cc1 [Example 63] | 8.17 | 8.50
CCCCOc1ccc(N2CCN(S(=O)(=O)C3(C(=O)NO)CCN(CCOC)CC3)CC2)cn1 [Example 164] | 7.54 | 7.66
CCCc1cnc(N2CCN(S(=O)(=O)C3(C(=O)NO)CCN(CCOC)CC3)CC2)nc1 [Example 178] | 8.10 | 8.28
COCCN1CCC(C(=O)NO)(S(=O)(=O)N2CCN(c3ccc(C(C)=O)cc3)CC2)CC1 [Example 174] | 8.67 | 8.45
CCCCOc1ccc(N2CCN(S(=O)(=O)C3(C(=O)NO)CCN(c4nccs4)CC3)CC2)cc1 [Example 157] | 8.83 | 8.99
COCCN1CCC(C(=O)NO)(S(=O)(=O)N2CCN(c3ccc(OCC(C)C)c(F)c3)CC2)CC1 [Example 166] | 9.14 | 9.15
CCCc1ccc(N2CCN(S(=O)(=O)C3(C(=O)NO)CCN(c4ccc(C)cc4)CC3)CC2)cc1 [Example 171] | 8.17 | 7.67
Cc1ccc(N2CCC(C(=O)NO)(S(=O)(=O)N3CCN(c4ccc(OCCCC(F)(F)F)cc4)CC3)CC2)cc1 [Example 161] | 8.08 | 8.54
COCCN1CCC(C(=O)NO)(S(=O)(=O)N2CCN(c3nc4ccccc4o3)CC2)CC1 [Example 196] | 7.60 | 7.25
CCCCc1ccc(N2CCN(S(=O)(=O)C3(C(=O)NO)CCN(CCOC)CC3)CC2)cc1F [Example 173] | 9.68 | 9.16

The next lines start with the values.

pKi [1] | pKi [2] | Compound
9.20 | 9.40 | CCCCCCc1ccc(N2CCN(S(=O)(=O)C3(C(=O)NO)CCN(CCOC)CC3)CC2)cc1 [Example 199]
9.32 | 9.75 | CCCCOc1ccc(N2CCN(S(=O)(=O)C3(C(=O)NO)CCN(Cc4nccn4C)CC3)CC2)cc1 [Example 245]
9.62 | 9.44 | O=C(NO)C1(S(=O)(=O)N2CCN(c3ccc(-c4ccc(F)cc4)cc3)CC2)CCOCC1 [Example 208]
8.60 | 8.95 | CCCCCc1cnc(N2CCN(S(=O)(=O)C3(C(=O)NO)CCOCC3)CC2)cn1 [Example 219]
8.86 | 8.69 | O=C(NO)C1(S(=O)(=O)N2CCN(c3cnc(CCC(F)(F)F)cn3)CC2)CCOCC1 [Example 218]
9.12 | 9.52 | CCCCOc1ccc(N2CCN(S(=O)(=O)C3(C(=O)NO)CCN(CCN(CC)CC)CC3)CC2)cc1 [Example 235]
6.99 | 6.32 | CCCCc1nnc(N2CCN(S(=O)(=O)C3(C(=O)NO)CCOCC3)CC2)s1 [Example 214]
9.23 | 9.48 | CCCCOc1ccc(N2CCN(S(=O)(=O)C3(C(=O)NO)CCN(C(=O)N(CC)CC)CC3)CC2)cc1 [Example 242]
6.67 | 6.13 | CCCc1nnc(N2CCN(S(=O)(=O)C3(C(=O)NO)CCOCC3)CC2)s1 [Example 216]
8.30 | 8.61 | CCCCOc1ccc(N2CCN(S(=O)(=O)C3(C(=O)NO)CCN(c4ccc(OC)cc4)CC3)CC2)cc1 [Example 249]
9.36 | 9.01 | COCCN1CCC(C(=O)NO)(S(=O)(=O)N2CCN(c3ccc(OC(F)(F)F)cc3)CC2)CC1 [Example 202]
8.88 | 9.77 | CCCCOc1ccc(N2CCN(S(=O)(=O)C3(C(=O)NO)CCN(C(=O)N4CCCC4)CC3)CC2)cc1 [Example 231]
9.20 | 9.39 | CCCCCc1ccc(N2CCN(S(=O)(=O)C3(C(=O)NO)CCN(C(=O)CC)CC3)CC2)cc1 [Example 206]
9.11 | 9.59 | CCCCOc1ccc(N2CCN(S(=O)(=O)C3(C(=O)NO)CCN(CCN4CCOCC4)CC3)CC2)cc1 [Example 233]
7.58 | 9.25 | CCCCOc1ccc(N2CCN(S(=O)(=O)C3(C(=O)NO)CCSCC3)CC2)cc1 [Example 232]
9.28 | 8.79 | CCCc1ccc(N2CCN(S(=O)(=O)C3(C(=O)NO)CCN(CCOC)CC3)CC2)cc1 [Example 200]
8.50 | 8.79 | CCOCCSc1ccc(N2CCN(S(=O)(=O)C3(C(=O)NO)CCOCC3)CC2)cc1 [Example 234]
8.10 | 8.40 | CCCCOc1ccc(N2CCN(S(=O)(=O)C3(C(=O)NO)CCS(=O)(=O)CC3)CC2)cc1 [Example 222]
9.34 | 9.57 | CCCCOc1ccc(N2CCN(S(=O)(=O)C3(C(=O)NO)CCN(C(=O)N4CCN(C)CC4)CC3)CC2)cc1 [Example 230]
9.27 | 9.49 | CCCCOc1ccc(N2CCN(S(=O)(=O)C3(C(=O)NO)CCN(C(=O)NC(C)(C)C)CC3)CC2)cc1 [Example 240]
8.59 | 8.83 | CCCCCc1ccc(N2CCN(S(=O)(=O)C3(C(=O)NO)CCN(S(=O)(=O)N(C)C)CC3)CC2)cc1 [Example 236]
7.90 | 7.79 | CC(C)Cc1ccc(N2CCN(S(=O)(=O)C3(C(=O)NO)CCOCC3)CC2)c(F)c1 [Example 213]
9.54 | 8.92 | CCCCc1ccc(N2CCN(S(=O)(=O)C(C)C(=O)NO)CC2)nc1 (stereo not drawn) [Example 217]
8.98 | 9.16 | O=C(NO)C1(S(=O)(=O)N2CCN(c3cnc(CCC(F)(F)C(F)(F)F)cn3)CC2)CCOCC1 [Example 210]
9.27 | 9.43 | CCCCCc1ccc(N2CCN(S(=O)(=O)C3(C(=O)NO)CCN(C(C)=O)CC3)CC2)cc1 [Example 239]
8.69 | 8.77 | CCCCCc1ccc(N2CCN(S(=O)(=O)C3(C(=O)NO)CCN(S(C)(=O)=O)CC3)CC2)cc1 [Example 237]
7.98 | 8.36 | CCCCOc1ccc(N2CCN(S(=O)(=O)C3(C(=O)NO)CCN(c4cccc(C)c4)CC3)CC2)cc1 [Example 226]
8.69 | 8.62 | CCCCCc1ccc(N2CCN(S(=O)(=O)C3(C(=O)NO)CCN(S(N)(=O)=O)CC3)CC2)cc1 [Example 205]
8.79 | 9.28 | CCCCOc1ccc(N2CCN(S(=O)(=O)C3(C(=O)NO)CCN(CCCC(F)(F)F)CC3)CC2)cc1 [Example 238]
8.44 | 8.97 | CCCCOc1ccc(N2CCN(S(=O)(=O)C3(C(=O)NO)CCN(c4ccc(N(C)C)cc4)CC3)CC2)cc1 [Example 241]
